Experimental data as given in patent US20230181535A1, “UBIQUITIN-LIGASE INHIBITORS FOR THE TREATMENT OF CANCER” (FUNDACIÓN PROFESOR NOVOA SANTOS, priority 2020, published 2023).

Columns and labels:
[1] = test system: Hakai-dependent ubiquitination of the E-cadherin complex; assay: Hakai-dependent ubiquitination of the E-cadherin complex (immunoprecipitation); assay type: cell-based; settings: 293T cells transfected with Flag-Hakai, myc-E-cadherin, v-Src, HA-ubiquitin; IP anti-E-cadherin
Experimental: For immunoprecipitation experiments, 293 cells were transfected with 3 μg Src, 4 μg Flag-Hakai, and 2 μg HA-ubiquitin and 3 μg E-cadherin with Lipofectamin 2000 (Invitrogen, UK). 24 h after transfection, cells were lysed for 20 min in 1 ml of 1% Triton X-100 lysis buffer (20 mM Tris-HCl pH 7.5, 150 mM NaCl and 1% Triton X-100) containing 10 μg/ml leupeptin, 10 μg/ml aprotinin and 1 mM phenylmethanesulphonyl fluoride (PMSF), supplemented with 10 mM N-ethylmaleimide and 2.5 mM sodium orthovanadate. After centrifugation at 18.000 g for 10 min, the supernatants were immunoprecipitated for 2 h with 2 μg of anti-E-cadherin antibody bound to 60 μl of protein G PLUS-Agarose beads, followed by SDS-polyacrylamide gel electrophoresis (PAGE) and western blotting with the indicated antibodies as previously reported.

[2] = test system: HT-29 colon tumour cell line; assay: MTT cell viability assay, HT-29; assay type: cell-based, human; settings: increasing range of concentrations
Experimental: (§1) For cytotoxicity assays, 1×10^4 cells were seeded per well into a 96-well plate. After 24 h cells were treated with the indicated inhibitors for 72 h and a MTT colorimetric cell viability assay was performed following manufacturer's instructions (Sigma Aldrich, St Louis, Mo.). Absorbance was measured at 570 and 630 nm using a Multiskan Plus Reader (Nanoquant Infinite M200 Tecan Trading AG, Switzerland). Dose-response curves were designed with Graph Pad Prism Software and the half-maximal inhibitory concentration (IC50) values were calculated. Represented data are the mean±SEM of at least three independent experiments with six replicates per condition.

[3] = test system: LoVo colon tumour cell line; assay: MTT cell viability assay, LoVo; assay type: cell-based; settings: increasing range of concentrations
Experimental: as §1

HT-29 cells = assay: Western blotting of EMT markers, HT-29; assay type: cell-based, human; settings: HT-29; 48 h
Experimental: For western blot analysis, cells were treated with the indicated inhibitors for 48 h and the whole cell extracts were obtained as described previously. Twenty micrograms of lysates were resolved on a 10% polyacrilamide SDS-PAGE followed by western blot analysis performed as previously described. For immunofluorescence assays cells were grown for 24 h on glass coverslips and treated with the indicated inhibitors for 48 h. Cells were fixed with 4% PFA for 15 min, permeabilized with 0.5% […] and incubated with E-cadherin antibody for 2 h. Coverslips were incubated with fluorescein-tagged secondary antibody (Dakopatts, Sweden) for […]. Finally coverslips were mounted with ProLong Gold antifade reagent (LifeTech, UK) and images were taken in epifluorescence microscope (Olympus) using 40× objective. Immunofluorescence of E-cadherin and DNA content analysis for FIGS. 22-23 were performed culturing of HT-29 human colorectal adenocarcinoma cell line in 384-well plates with densities of 3,000 cells per well in a total volume of 25 μl. After the completion of the staining, four images (2×2 array) of each well were taken with Vala Sciences' SIM™ with a 20× objective. Each image was acquired as a SIM Synthetic Focus with a z-stack range of 6 μm with 1 μm steps. The SIM Synthetic Focus feature will compile a “best focus” images from multiple images. One set of SIM Synthetic Focus images were taken in the DAPI channel for Hoechst 33342 staining, and another set of images were taken in the FITC channel for anti-E-cadherin-AlexaFluor488 labeling and analysed by Structured Illumination Microscopy (SIM™) platform to image the cells and Vala's CyteSeer® Cell-Cell Junction Algorithm to quantify the degree of expression and intracellular location of E-cadherin Vala's CyteSeer® Software can also measure relative DNA content by analyzing Total Integrated Intensity (TII) of the Nuclear Image (Ni) on the Nuclear Mask (Nm). This analysis was performed by Vala Science. Twenty compounds from were assayed in a “blinded” manner, at 2 test concentrations in 6 replicate wells for first assay and 3 replicate for second assay.

[4] = test system: prostate cancer PC-3 cells; assay: BrdU proliferation assay, PC-3; assay type: cell-based, human; settings: 48 h
Experimental: For BrdU assays, 1×10^4 of indicated cells were plated per well into a 96-well plate. After 24 h, cells were treated with the indicated inhibitors for 48 h. Three independent experiments were plated with six replicates per each condition. Cells were treated with […] BrdU for 2 h. BrdU incorporation into newly synthesized DNA was measured using a cell proliferation colorimetric immunoassay kit according to the manufacturer's instructions (Roche, Switzerland). Results are expressed as mean±S.D. Results are represented as percentage of positive cells (mean±S.D) of three independent experiments.

Hakai-MDCK cells = assay: Soft agar-colony formation assay, Hakai-MDCK; assay type: cell-based; settings: 21 days
Experimental: Soft agar-colony formation assay was performed on 12-well plates in triplicates at a density of 5×10^3 MDCK and MDCK-Hakai cells/well, or 12×10^3 HT29 cells/well. Cells were seeded in medium with 0.5% low-melting agarose over a layer with 0.75% low-melting agarose (Lonza Rockland, Me., USA). Cells were treated with the indicated inhibitors and DMSO was used as vehicle. Treatment was refreshed every 3 days and, after 21 days for MDCK and MDCK-Hakai cells or 28 days for HT29 cells, number of colonies were quantified. Quantification of five randomly-selected fields of each condition was photographed with a Nikon Eclipse-TI microscope (objective 4×). Experiments were conducted with three triplicates and were repeated three times. Data are represented as mean±SD.

[5] = Hepatocyte stability, mouse; assay type: in vitro ADME; settings: cryopreserved mouse hepatocytes in suspension, read-out: half-life (T½)
Experimental: (§2) Test compound (final substrate concentration 3 μM; final DMSO concentration 0.25%) were pre-incubated at 37° C., prior to the addition of a suspension of cryopreserved hepatocytes (final cell density 0.5×10^6 viable cells/mL in Williams E media supplemented with 2 mM L glutamine and 25 mM HEPES) to initiate the reaction. The reactions were stopped with acetonitrile containing internal standard at the appropriate time points ([…]). The termination plates were centrifuged at 2500 rpm at 4° C. for 30 minute to precipitate the protein. Following the hepatocyte stability assays, the samples were utilized for metabolite profiling. Hepatocyte stability in mouse and human was performed by using the incubation of tested compound (3 μM) with cryopreserved hepatocytes in suspension. Samples were removed at 6 time points over the course of a 60 min experiment and remaining test compound at each time point was analysed by using LC-MS/MS. Then, data was analysed and an intrinsic clearance (CLint) with standard error and half-life (t½) reported.

[6] = test system: mouse-cryopreserved hepatocytes; assay: Hepatocyte stability, mouse; assay type: in vitro ADME; settings: 3 μM
Experimental: as §2

| Structure (SMILES) | Hakai-dependent ubiquitination of E-cadherin complex [1] | cytotoxicity (cell viability, MTT) [2] | cytotoxicity (cell viability, MTT) [3] | Cortactin expression levels (western blotting) (HT-29 cells) | E-cadherin levels (western blotting) (HT-29 cells) | Vimentin mesenchymal marker (western blotting) (HT-29 cells) | cell proliferation (BrdU) [4] | colony formation in soft agar (Hakai-MDCK cells) | half-life at 3 μM [5] | compound remaining after 60 min [6] |
| --- | --- | --- | --- | --- | --- | --- | --- | --- | --- | --- |
| O=C(O)c1ccc(-n2nnnc2SCC(=O)c2ccc([N+](=O)[O-])cc2)cc1 [Hakin-1, 4-(5-[2-(4-nitrophenyl)-2-oxoethyl]thiol-1H-tetrazol-1-yl)benzoic acid] | reduction of Hakai-dependent ubiquitination of E-cadherin complex | important inhibitory response | important inhibitory response | increase expression levels | increase E-cadherin levels | reduced | inhibited cell proliferation | robust inhibition of colony formation | 5.92 min |  |
| O=C(O)c1ccc(-n2nnnc2SCC(O)c2ccc([N+](=O)[O-])cc2)cc1 (stereo not shown) [MKH1] |  |  |  |  |  |  |  |  |  | 95%-100% |
